Laboratory results published in patent EP2508526A1, “Spiroalkene carboxamide derivatives and their use as chemokine receptor modulators” (Ares Trading SA, priority 2011, dated 2012).
Structures can show the parent of a compound that is named as a salt.

target: T1, hCCR2b (Homo sapiens, UniProt P41597); experiment: CCR2 binding assay ([125I]MCP-1, SPA, CHO cell membranes); design: expressed in transfected cells; host or cells: CHO cells (membrane preparation); conditions: membranes from CHO cells expressing hCCR2b, 50 pM [125I]MCP-1; read-out: Binding hCCR2 (Ki)
T1 sequence (P41597 1-360 isoform P41597-2): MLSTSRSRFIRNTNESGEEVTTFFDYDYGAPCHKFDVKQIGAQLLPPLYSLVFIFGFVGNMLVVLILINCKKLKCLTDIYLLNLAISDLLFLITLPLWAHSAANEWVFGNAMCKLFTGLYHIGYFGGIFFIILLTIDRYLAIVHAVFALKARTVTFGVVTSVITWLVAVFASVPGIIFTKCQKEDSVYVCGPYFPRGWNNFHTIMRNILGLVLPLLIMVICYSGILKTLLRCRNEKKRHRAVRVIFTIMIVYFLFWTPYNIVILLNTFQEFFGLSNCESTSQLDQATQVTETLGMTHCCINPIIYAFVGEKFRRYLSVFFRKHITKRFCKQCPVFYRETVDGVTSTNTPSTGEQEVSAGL
Protocol: Membranes were prepared from CHO cells expressing mCCR2b or hCCR2b for use in ligand binding studies. Cells were suspended in 50mM Tris-HCL, pH 7.4, 2 mM EDTA, 250 mM Sucrose and 1x Complete EDTA-free protease inhibitor cocktail (Roche) (Buffer A), and disrupted at 4°C by N2 decompression using a cell disruption bomb (Parr Instrument). Following centrifugation at 200 RCF for 10 min at 4°C, the supernatant was suspended in buffer A and centrifuged again at 19000 RPM (RCSC rotor SS34 code 05 Sorvall Instruments DUPONT) for 90 min at 4°C. The pellet was then suspended in 10 mM HEPES, pH 7.4, 1 mM EDTA, 250 mM Sucrose, and 1x Complete EDTA-free protease inhibitor cocktail (Buffer B) and homogenized using a potter. Membranes were flash frozen in liquid N2 and stored at -80°C. [125I] Monocyte Chemoattractant Protein -1 (MCP-1) (25µCi; Perkin Elmer) was added to test compounds in DMSO (1% final). Membranes and WGA SPA beads (GE Healthcare) were added to give a final volume of 100 µl in 96-well plates with assay concentrations of 50 pM or 100 pM [125I]Monocyte Chemoattractant Protein -1 (respectively for hCCR2b or mCCR2b), 50 mM HEPES, pH 7.4, 5 mM MgCl2, 1 mM CaCl2, 0.1% BSA, 1-5 µg/well of membranes and 100 µg/well of WGA SPA beads. Binding was performed for 90 min at RT with strong agitation of speed 5 (Heidolph Titramax 100 SCITEC) and bound radioactivity was measured on a PerkinElmer 1450 MicroBeta counter. Specific binding was calculated by subtracting remaining radioactivity in the presence of 1000-fold excess of unlabeled compound. Binding data were analyzed using the Genedata Screener® software.

| Ki [nM] | Structure (SMILES) |
| --- | --- |
| < 50 | COCCN1CCC2(CC1)OC(=O)C(C)=C2C(=O)N1CCc2ccc(C(F)(F)F)cc2C1 [Compound 16, 8-(2-methoxyethyl)-3-methyl-4-{[7-(trifluoromethyl)-3,4-dihydroisoquinolin-2(1H)-yl]carbonyl}-1-oxa-8-azaspiro[4.5]dec-3-en-2-one] |
| < 50 | CCN1CCC2(CC1)OC(=O)C(C)=C2C(=O)N1CCN(c2cc(OC)cc(C(F)(F)F)c2)CC1 [Compound 87, 8-ethyl-4-({4-[3-methoxy-5-(trifluoromethyl)phenyl]piperazin-1-yl}carbonyl)-3-methyl-1-oxa-8-azaspiro[4.5]dec-3-en-2-one] |
| < 50 | CCN1CCC2(CC1)OC(=O)C(C)=C2C(=O)N1C[C@@H]2C[C@H]1CN2c1cc(C(F)(F)F)ccn1 [Compound 71, 8-ethyl-3-methyl-4-({(1S,4S)-5-[4-(trifluoromethyl)pyridin-2-yl]-2,5-diazabicyclo[2.2.1]hept-2-yl}carbonyl)-1-oxa-8-azaspiro[4.5]dec-3-en-2-one] |
| < 50 | CC1=C(C(=O)N2CCN(c3cccc(C(F)(F)F)c3)CC2)C2(CCN(C3CCCOC3)CC2)OC1=O (stereo not shown) [Compound 23] |
| 500 to 2000 | CCN1CCC2(CC1)OC(=O)C(C)=C2C(=O)N1CCN(c2cc(C(F)(F)F)ccc2OC)CC1 [Compound 95, 8-ethyl-4-({4-[2-methoxy-5-(trifluoromethyl)phenyl]piperazin-1-yl}carbonyl)-3-methyl-1-oxa-8-azaspiro[4.5]dec-3-en-2-one] |
| 50 to 100 | CC1=C(C(=O)N2CCN(c3cccc(C(F)(F)F)c3)CC2)C2(CCN(C3CCC(C(=O)O)CC3)CC2)OC1=O (stereo not shown) [Compound 24, 4-[3-methyl-2-oxo-4-({4-[3-(trifluoromethyl)phenyl]piperazin-1-yl}carbonyl)-1-oxa-8-azaspiro[4.5]dec-3-en-8-yl]cyclohexanecarboxylic acid] |
| < 50 | CC1=C(C(=O)N2CCc3ccc(C(F)(F)F)cc3C2)C2(CCN(CCO)CC2)OC1=O [Compound 20, 8-(2-hydroxyethyl)-3-methyl-4-{[7-(trifluoromethyl)-3,4-dihydroisoquinolin-2(1H)-yl]carbonyl}-1-oxa-8-azaspiro[4.5]dec-3-en-2-one] |
| 100 to 500 | CCN1CCC2(CC1)OC(=O)C(C)=C2C(=O)N1CCCN(c2ccc(C(F)(F)F)cc2)CC1 [Compound 91, 8-ethyl-3-methyl-4-({4-[4-(trifluoromethyl)phenyl]-1,4-diazepan-1-yl}carbonyl)-1-oxa-8-azaspiro[4.5]dec-3-en-2-one] |
| 100 to 500 | CC1=C(C(=O)N2CCN(c3cccc(C(F)(F)F)c3)CC2)C2(CCN(CCCC(=O)O)CC2)OC1=O [Compound 11, 4-[3-methyl-2-oxo-4-({4-[3-(trifluoromethyl)phenyl]piperazin-1-yl}carbonyl)-1-oxa-8-azaspiro[4.5]dec-3-en-8-yl]butanoic acid] |
| 100 to 500 | CCN1CCC2(CC1)OC(=O)C(C)=C2C(=O)NCCCc1cccc(C(F)(F)F)c1 [Compound 92, 8-ethyl-3-methyl-2-oxo-N-{3-[3-(trifluoromethyl)phenyl]propyl}-1-oxa-8-azaspiro[4.5]dec-3-ene-4-carboxamide] |
| < 50 | CC1=C(C(=O)N2CCN(c3cccc(C(F)(F)F)c3)CC2)C2(CCN(C(C)C)CC2)OC1=O [Compound 101, 8-isopropyl-3-methyl-4-({4-[3-(trifluoromethyl)phenyl]piperazin-1-yl}carbonyl)-1-oxa-8-azaspiro[4.5]dec-3-en-2-one] |
| < 50 | CC1=C(C(=O)N2CCc3ccc(C(F)(F)F)cc3C2)C2(CCN(C3CCC(O)CC3)CC2)OC1=O (stereo not shown) [Compound 31, 8-(4-hydroxycyclohexyl)-3-methyl-4-{[7-(trifluoromethyl)-3,4-dihydroisoquinolin-2(1H)-yl]carbonyl}-1-oxa-8-azaspiro[4.5]dec-3-en-2-one] |
| 100 to 500 | CC1=C(C(=O)N2CCN(c3cccc(C(F)(F)F)c3)CC2)C2(CCN(CC(=O)c3ccccc3)CC2)OC1=O [Compound 108, 3-methyl-8-(2-oxo-2-phenylethyl)-4-({4-[3-(trifluoromethyl)phenyl]piperazin-1-yl}carbonyl)-1-oxa-8-azaspiro[4.5]dec-3-en-2-one] |
| < 50 | CC1=C(C(=O)N2CCN(c3cccc(C(F)(F)F)c3)CC2)C2(CCN(CCCc3ccccc3)CC2)OC1=O [Example 5, 3-methyl-8-(3-phenylpropyl)-4-({4-[3-(trifluoromethyl)phenyl]piperazin-1-yl}carbonyl)-1-oxa-8-azaspiro[4.5]dec-3-en-2-one] |
| 100 to 500 | CC1=C(C(=O)N2CCN(c3cccc(C(F)(F)F)c3)CC2)C2(CCN(CCc3ccccc3Cl)CC2)OC1=O [Compound 14, 8-[2-(2-chlorophenyl)ethyl]-3-methyl-4-({4-[3-(trifluoromethyl)phenyl]piperazin-1-yl}carbonyl)-1-oxa-8-azaspiro[4.5]dec-3-en-2-one] |
| < 50 | COCCCN1CCC2(CC1)OC(=O)C(C)=C2C(=O)N1CCc2ccc(C(F)(F)F)cc2C1 [Compound 18, 8-(3-methoxypropyl)-3-methyl-4-{[7-(trifluoromethyl)-3,4-dihydroisoquinolin-2(1H)-yl]carbonyl}-1-oxa-8-azaspiro[4.5]dec-3-en-2-one] |
| < 50 | CC1=C(C(=O)NCC(=O)Nc2cccc(C(F)(F)F)c2)C2(CCN(C3CCOCC3)CC2)OC1=O [Compound 69, 3-methyl-2-oxo-N-(2-oxo-2-{[3-(trifluoromethyl)phenyl]amino}ethyl)-8-(tetrahydro-2H-pyran-4-yl)-1-oxa-8-azaspiro[4.5]dec-3-ene-4-carboxamide] |
| < 50 | COc1cccc(CCN2CCC3(CC2)OC(=O)C(C)=C3C(=O)N2CCN(c3cccc(C(F)(F)F)c3)CC2)c1 [Compound 8, 8-[2-(3-methoxyphenyl)ethyl]-3-methyl-4-({4-[3-(trifluoromethyl)pheny)]piperazin-1-yl}carbonyl)-1-oxa-8-azaspiro[4.5]dec-3-en-2-one, dihydrochloride salt] |
| 100 to 500 | CC1=C(C(=O)N2CCN(c3cccc(C(F)(F)F)c3)CC2)C2(CCN(CC(=O)O)CC2)OC1=O [Compound 9, [3-methyl-2-oxo-4-({4-[3-(trifluoromethyl)phenyl]piperazin-1-yl}carbonyl)-1-oxa-8-azaspiro[4.5]dec-3-en-8-yl]acetic acid] |
| < 50 | CC1=C(C(=O)N2CCN(c3cccc(C(F)(F)F)c3)CC2)C2(CCN(CCc3ccc(F)cc3)CC2)OC1=O [Example 3, 8-[2-(4-fluorophenyl)ethyl]-3-methyl-4-({4-[3-(trifluoromethyl)phenyl]piperazin-1-yl}carbonyl)-1-oxa-8-azaspiro[4.5]dec-3-en-2-one] |
| < 50 | CC1=C(C(=O)N2CCc3ccc(C(F)(F)F)cc3C2)C2(CCN(C3CCOC3)CC2)OC1=O (stereo not shown) [Compound 34, 3-methyl-8-(tetrahydrofuran-3-yl)-4-{[7-(trifluoromethyl)-3,4-dihydroisoquinolin-2(H)-yl]carbonyl}-1-oxa-8-azaspiro[4.5]dec-3-en-2-one] |
| < 50 | CC1=C(C(=O)N2CCc3ccc(C(F)(F)F)cc3C2)C2(CCN(C3CCOC(C)C3)CC2)OC1=O (stereo not shown) [Compound 36, 3-methyl-8-(2-methyltetrahydro-2H-pyran-4-yl)-4-{[7-(trifluoromethyl)-3,4-dihydroisoquinolin-2(1H)-yl]carbonyl}-1-oxa-8-azaspiro[4.5]dec-3-en-2-one] |
| < 50 | COCCCN1CCC2(CC1)OC(=O)C(C)=C2C(=O)N1CCN(c2cccc(C(F)(F)F)c2)CC1 [Example 2, 8-(3-methoxypropyl)-3-methyl-4-({4-[3-(trifluoromethyl)phenyl]piperazin-1-yl}carbonyl)-1-oxa-8-azaspiro[4.5]dec-3-en-2-one] |

| Structure (SMILES) | Ki [nM] |
| --- | --- |
| COC1COCCC1N1CCC2(CC1)OC(=O)C(C)=C2C(=O)N1CCc2ccc(C(F)(F)F)cc2C1 (single isomer, unassigned; (+)) [Compound 41, (+)-1,5-anhydro-3,4-dideoxy-2-O-methyl-3-(3-methyl-2-oxo-4-{[7-(trifluoromethyl)-3,4-dihydroisoquinolin-2(1H)-yl]carbonyl}-1-oxa-8-azaspiro[4.5]dec-3-en-8-yl)-pentitol] | < 50 |
| CC1=C(C(=O)N2CCc3ccc(C(F)(F)F)cc3C2)C2(CCNCC2)OC1=O [Compound 76, 3-methyl-4-{[7-(trifluoromethyl)-3,4-dihydroisoquinolin-2(1H)-yl]carbonyl}-1-oxa-8-azaspiro[4.5]dec-3-en-2-one, hydrocloride salt] | < 50 |
